Experimental data: ChEMBL document CHEMBL1201862, “PubChem BioAssay data set” (2004)
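Results reflect a 48-hour exposure of cells in 96-well plates to compound at five concentrations. GI50: concentration for 50% inhibition of growth.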 Calls of active or inactive are those of the source. Cut-off read from the data, not from the text of the source: active = GI50 up to about 1.1 µM and inactive = higher.

Experiments:
Assay in all cases: DTP human tumour cell line panel, 48 h
786-0 = test system: 786-0
A498 = test system: A498
A549 = test system: A549
ACHN = test system: ACHN
CAKI-1 = test system: CAKI-1
CCRF-CEM = test system: CCRF-CEM
COLO 205 = test system: COLO 205
DLD-1 = test system: DLD-1
DMS-114 = test system: DMS-114
DMS-273 = test system: DMS-273
EKVX = test system: EKVX
HCC 2998 = test system: HCC 2998
HCT-116 = test system: HCT-116
HCT-15 = test system: HCT-15
HL-60 = test system: HL-60
HOP-18 = test system: HOP-18
HOP-62 = test system: HOP-62
HOP-92 = test system: HOP-92
HT-29 = test system: HT-29
IGROV-1 = test system: IGROV-1
K562 = test system: K562
KM-20L2 = test system: KM-20L2
KM12 = test system: KM12
LOX IMVI = test system: LOX IMVI
LXFL 529 = test system: LXFL 529
M14 = test system: M14
M19-MEL = test system: M19-MEL
MOLT-4 = test system: MOLT-4
Malme-3M = test system: Malme-3M
NCI-H226 = test system: NCI-H226
NCI-H23 = test system: NCI-H23
NCI-H460 = test system: NCI-H460
NCI-H522 = test system: NCI-H522
OVCAR-3 = test system: OVCAR-3
OVCAR-4 = test system: OVCAR-4
OVCAR-5 = test system: OVCAR-5
OVCAR-8 = test system: OVCAR-8
RPMI-8226 = test system: RPMI-8226
RXF 393 = test system: RXF 393
RXF 631 = test system: RXF 631
SF-268 = test system: SF-268
SF-295 = test system: SF-295
SK-MEL-28 = test system: SK-MEL-28
SK-OV-3 = test system: SK-OV-3
SN12C = test system: SN12C
SNB-19 = test system: SNB-19
SNB-75 = test system: SNB-75
SNB-78 = test system: SNB-78
SR = test system: SR
SW-620 = test system: SW-620
TK-10 = test system: TK-10
U-251 = test system: U-251
UACC-257 = test system: UACC-257
UACC-62 = test system: UACC-62
UO-31 = test system: UO-31
XF498 = test system: XF498

O=C(Nc1c(Cl)cc([N+](=O)[O-])cc1Cl)C(=O)C(C(=O)c1ccncc1)C1OC(=O)c2ccccc21 (stereo unspecified)
GI50 (786-0): > 100 µM (inactive)
GI50 (A498): > 100 µM (inactive)
GI50 (A549): > 100 µM (inactive)
GI50 (ACHN): > 100 µM (inactive)
GI50 (CAKI-1): > 100 µM (inactive)
GI50 (CCRF-CEM): > 100 µM (inactive)
GI50 (COLO 205): > 100 µM (inactive)
GI50 (DLD-1): > 100 µM (inactive)
GI50 (DMS-114): > 100 µM (inactive)
GI50 (DMS-273): > 100 µM (inactive)
GI50 (EKVX): > 100 µM (inactive)
GI50 (HCC 2998): > 100 µM (inactive)
GI50 (HCT-116): > 100 µM (inactive)
GI50 (HCT-15): > 100 µM
GI50 (HL-60): > 100 µM (inactive)
GI50 (HOP-18): > 100 µM (inactive)
GI50 (HOP-62): > 100 µM (inactive)
GI50 (HOP-92): > 100 µM (inactive)
GI50 (HT-29): > 100 µM (inactive)
GI50 (IGROV-1): > 100 µM (inactive)
GI50 (K562): > 100 µM (inactive)
GI50 (KM-20L2): > 100 µM (inactive)
GI50 (KM12): > 100 µM (inactive)
GI50 (LOX IMVI): > 100 µM (inactive)
GI50 (LXFL 529): > 100 µM (inactive)
GI50 (M14): > 100 µM (inactive)
GI50 (M19-MEL): > 100 µM (inactive)
GI50 (MOLT-4): > 100 µM (inactive)
GI50 (Malme-3M): > 100 µM (inactive)
GI50 (NCI-H226): > 100 µM (inactive)
GI50 (NCI-H23): > 100 µM (inactive)
GI50 (NCI-H460): > 100 µM (inactive)
GI50 (NCI-H522): > 100 µM (inactive)
GI50 (OVCAR-3): > 100 µM (inactive)
GI50 (OVCAR-4): > 100 µM (inactive)
GI50 (OVCAR-5): > 100 µM (inactive)
GI50 (OVCAR-8): > 100 µM (inactive)
GI50 (RPMI-8226): > 100 µM (inactive)
GI50 (RXF 393): > 100 µM (inactive)
GI50 (RXF 631): > 100 µM (inactive)
GI50 (SF-268): > 100 µM (inactive)
GI50 (SF-295): > 100 µM (inactive)
GI50 (SK-MEL-28): > 100 µM (inactive)
GI50 (SK-OV-3): > 100 µM (inactive)
GI50 (SN12C): > 100 µM (inactive)
GI50 (SNB-19): > 100 µM (inactive)
GI50 (SNB-75): 35 µM (inactive)
GI50 (SNB-78): > 100 µM (inactive)
GI50 (SR): > 100 µM (inactive)
GI50 (SW-620): > 100 µM (inactive)
GI50 (TK-10): > 100 µM (inactive)
GI50 (U-251): > 100 µM (inactive)
GI50 (UACC-257): > 100 µM (inactive)
GI50 (UACC-62): > 100 µM (inactive)
GI50 (UO-31): > 100 µM (inactive)
GI50 (XF498): > 100 µM (inactive)
